We go through six molecules from PubChem BioAssay AID1259407 (Chemical Carcinogenesis Research Information System (CCRIS), 2018).

The data set has as its system CCRIS mutagenicity, Ames/micronucleus/aberration tests. In words: CCRIS mutagenicity studies.
Setting [1] is: Test System: AMES SALMONELLA TYPHIMURIUM, Strain/Indicator: TA98, Metabolic Activation: NONE, Method: STANDARD PLATE.
[2] abbreviates: Test System: AMES SALMONELLA TYPHIMURIUM, Strain/Indicator: TA98, Metabolic Activation: RAT, LIVER, S-9, AROCLOR 1254, Method: STANDARD PLATE.
Setting [3] is: Test System: AMES SALMONELLA TYPHIMURIUM, Strain/Indicator: TA100, Metabolic Activation: NONE, Method: STANDARD PLATE.
Setting [4] is: Test System: AMES SALMONELLA TYPHIMURIUM, Strain/Indicator: TA100, Metabolic Activation: RAT, LIVER, S-9, AROCLOR 1254, Method: STANDARD PLATE.

Active and inactive are the calls of the source. How the calls were made is not given here.

Turning to `Clc1nc(Cl)nc(Nc2ccccc2Cl)n1`, the mutagenic call was “inactive; negative” (Test System: AMES SALMONELLA TYPHIMURIUM, Strain/Indicator: TA97, Metabolic Activation: HAMSTER, LIVER, S-9, AROCLOR 1254 (10 OR 30%), Method: PREINCUBATION); “inactive; negative” (Test System: AMES SALMONELLA TYPHIMURIUM, Strain/Indicator: TA97, Metabolic Activation: RAT, LIVER, S-9, AROCLOR 1254 (10 OR 30%), Method: PREINCUBATION); “inactive; negative” (Test System: AMES SALMONELLA TYPHIMURIUM, Strain/Indicator: TA98, Metabolic Activation: HAMSTER, LIVER, S-9, AROCLOR 1254 (10%), Method: PREINCUBATION); “inactive; negative” (Test System: AMES SALMONELLA TYPHIMURIUM, Strain/Indicator: TA98, Metabolic Activation: HAMSTER, LIVER, S-9, AROCLOR 1254 (30%), Method: PREINCUBATION); “inactive; negative” (Test System: AMES SALMONELLA TYPHIMURIUM, Strain/Indicator: TA98, Metabolic Activation: RAT, LIVER, S-9, AROCLOR 1254 (10%), Method: PREINCUBATION); “inactive; negative” (Test System: AMES SALMONELLA TYPHIMURIUM, Strain/Indicator: TA98, Metabolic Activation: RAT, LIVER, S-9, AROCLOR 1254 (30%), Method: PREINCUBATION). Besides, the mutagenic call (Test System: AMES SALMONELLA TYPHIMURIUM, Strain/Indicator: TA100, Metabolic Activation: HAMSTER, LIVER, S-9, AROCLOR 1254 (10%), Method: PREINCUBATION) is “inactive; negative”; the mutagenic call (Test System: AMES SALMONELLA TYPHIMURIUM, Strain/Indicator: TA100, Metabolic Activation: HAMSTER, LIVER, S-9, AROCLOR 1254 (30%), Method: PREINCUBATION) is “inactive; negative”; the mutagenic call (Test System: AMES SALMONELLA TYPHIMURIUM, Strain/Indicator: TA100, Metabolic Activation: NONE, Method: PREINCUBATION) is “inactive; negative”; the mutagenic call (Test System: AMES SALMONELLA TYPHIMURIUM, Strain/Indicator: TA100, Metabolic Activation: RAT, LIVER, S-9, AROCLOR 1254 (10%), Method: PREINCUBATION) was “inactive; negative”; the mutagenic call (Test System: AMES SALMONELLA TYPHIMURIUM, Strain/Indicator: TA100, Metabolic Activation: RAT, LIVER, S-9, AROCLOR 1254 (30%), Method: PREINCUBATION) was “inactive; negative”; the mutagenic call (Test System: AMES SALMONELLA TYPHIMURIUM, Strain/Indicator: TA1535, Metabolic Activation: HAMSTER, LIVER, S-9, AROCLOR 1254 (10 OR 30%), Method: PREINCUBATION) is “inactive; negative”. Moreover, the mutagenic call reads like this: (Test System: AMES SALMONELLA TYPHIMURIUM, Strain/Indicator: TA1535, Metabolic Activation: RAT, LIVER, S-9, AROCLOR 1254 (10 OR 30%), Method: PREINCUBATION) “inactive; negative”; (Test System: AMES SALMONELLA TYPHIMURIUM, Strain/Indicator: TA1537, Metabolic Activation: HAMSTER, LIVER, S-9, AROCLOR 1254 (10 OR 30%), Method: PREINCUBATION) “inactive; negative”; (Test System: AMES SALMONELLA TYPHIMURIUM, Strain/Indicator: TA1537, Metabolic Activation: RAT, LIVER, S-9, AROCLOR 1254 (10 OR 30%), Method: PREINCUBATION) “inactive; negative”; (Test System: CHINESE HAMSTER OVARY, Strain/Indicator: CHO-K1-BH4 (HGPRT)/6-THIOGUANINE, Metabolic Activation: NONE) “inactive; negative”; (Test System: CHINESE HAMSTER OVARY, Strain/Indicator: CHO-K1-BH4 (HGPRT)/6-THIOGUANINE, Metabolic Activation: S-9) “inactive; negative”; (Test System: E. COLI, Strain/Indicator: WP2 UVRA, Metabolic Activation: HAMSTER, LIVER, S-9, AROCLOR 1254, Method: STANDARD PLATE) “inactive; negative”. Further, the mutagenic call (Test System: E. COLI, Strain/Indicator: WP2 UVRA, Metabolic Activation: HAMSTER, LIVER, S-9, Method: STANDARD PLATE) is “inactive; negative”; the mutagenic call (Test System: E. COLI, Strain/Indicator: WP2 UVRA, Metabolic Activation: MOUSE, LIVER, S-9, AROCLOR 1254, Method: STANDARD PLATE) is “inactive; negative”; the mutagenic call (Test System: E. COLI, Strain/Indicator: WP2 UVRA, Metabolic Activation: MOUSE, LIVER, S-9, Method: STANDARD PLATE) was “inactive; negative”; the mutagenic call (Test System: E. COLI, Strain/Indicator: WP2 UVRA, Metabolic Activation: NONE, Method: STANDARD PLATE) was “inactive; negative”; the mutagenic call (Test System: E. COLI, Strain/Indicator: WP2 UVRA, Metabolic Activation: RAT, LIVER, S-9, AROCLOR 1254, Method: STANDARD PLATE) was “inactive; negative”; the mutagenic call (Test System: E. COLI, Strain/Indicator: WP2 UVRA, Metabolic Activation: RAT, LIVER, S-9, Method: STANDARD PLATE) was “inactive; negative”. Moreover, the mutagenic call (Test System: MOUSE LYMPHOMA, Strain/Indicator: L5178Y (TK+/TK-), Metabolic Activation: NONE, Method: SUSPENSION/PLATE) was “active; positive” and the mutagenic call (Test System: MOUSE LYMPHOMA, Strain/Indicator: L5178Y (TK+/TK-), Metabolic Activation: RAT, LIVER, S-9, AROCLOR 1254, Method: SUSPENSION/PLATE) was “active; positive”.
`CC(=O)OC(C(C)=O)N(C)N=O` (centres undefined): for the setting “Test System: AMES SALMONELLA TYPHIMURIUM, Strain/Indicator: TA1535, Metabolic Activation: NONE, Method: PREINCUBATION”, the mutagenic call was “active; positive”.
In the case of `Cc1ccc2c3c(cc4ccccc4c13)-c1ccccc1-2`, the mutagenic call (Test System: AMES SALMONELLA TYPHIMURIUM, Strain/Indicator: TA100, Metabolic Activation: RAT, LIVER, S-9, AROCLOR 1254) is “active; positive”.
On to `O=[N+]([O-])c1cc(C(F)(F)F)cc([N+](=O)[O-])c1Cl`, for which the mutagenic call is “inactive; negative” under setting [1]; “inactive; negative” under setting [2]; “inactive; negative” under setting [3]; “inactive; negative” under setting [4]; “inactive; negative” (Test System: AMES SALMONELLA TYPHIMURIUM, Strain/Indicator: TA1535, Metabolic Activation: NONE, Method: STANDARD PLATE); “inactive; negative” (Test System: AMES SALMONELLA TYPHIMURIUM, Strain/Indicator: TA1535, Metabolic Activation: RAT, LIVER, S-9, AROCLOR 1254, Method: STANDARD PLATE). The mutagenic call was “inactive; negative” (Test System: AMES SALMONELLA TYPHIMURIUM, Strain/Indicator: TA1537, Metabolic Activation: NONE, Method: STANDARD PLATE); “inactive; negative” (Test System: AMES SALMONELLA TYPHIMURIUM, Strain/Indicator: TA1537, Metabolic Activation: RAT, LIVER, S-9, AROCLOR 1254, Method: STANDARD PLATE); “inactive; negative” (Test System: AMES SALMONELLA TYPHIMURIUM, Strain/Indicator: TA1538, Metabolic Activation: NONE, Method: STANDARD PLATE); “inactive; negative” (Test System: AMES SALMONELLA TYPHIMURIUM, Strain/Indicator: TA1538, Metabolic Activation: RAT, LIVER, S-9, AROCLOR 1254, Method: STANDARD PLATE).
Regarding `BrC(Br)C(Br)Br`, the mutagenic call reads like this: (Test System: AMES SALMONELLA TYPHIMURIUM, Strain/Indicator: TA97, Metabolic Activation: NONE, Method: STANDARD PLATE) “active; positive”; (Test System: AMES SALMONELLA TYPHIMURIUM, Strain/Indicator: TA97, Metabolic Activation: RAT, LIVER, S-9, AROCLOR 1254, Method: STANDARD PLATE) “active; positive”; under setting [1], “inactive; negative”; under setting [2], “active; positive”; under setting [3], “inactive; negative”; under setting [4], “active; positive”. Also, the mutagenic call by setting is: (Test System: AMES SALMONELLA TYPHIMURIUM, Strain/Indicator: TA104, Metabolic Activation: NONE, Method: STANDARD PLATE) “inactive; negative”; (Test System: AMES SALMONELLA TYPHIMURIUM, Strain/Indicator: TA104, Metabolic Activation: RAT, LIVER, S-9, AROCLOR 1254, Method: STANDARD PLATE) “active; positive”; (Test System: AMES SALMONELLA TYPHIMURIUM, Strain/Indicator: TA1530, Metabolic Activation: NONE, Method: PREINCUBATION) “active; positive”.
`ClCc1cccc2cc3ccc4cccc5ccc(c12)c3c45`: the mutagenic call was “active; positive” under setting [1] and “active; positive” under setting [3].
